Values of other authors as cited in PMC6625762 (Bioorganic & medicinal chemistry letters, 2019).

In the case of “NMeAla-Tle-(4S)-4-phenoxy-Pro-(R)-tetrahydronaphth-1-yl-amide”, the Kd is listed as 5 nM.
